Assay results: ChEMBL document CHEMBL2046369, “Self-calibrating viscosity probes: design and subcellular localization” (Bioorg Med Chem, 2012); call rule not given here

Legend:
[1] = Drug uptake in human T24 cell cytoskeleton at 2 uM after 1 hr by Dil-C28 dye staining-based inverted microscopic analysis; type: ADME; conditions: t-24, 1 h
[2] = Drug uptake in human T24 cell cytoplasm at 2 uM after 1 hr by Dil-C28 dye staining-based inverted microscopic analysis; type: ADME; conditions: t-24, 1 h

Drug uptake [1]	Drug uptake [2]	Structure (SMILES)
Active	–	CCCCCCN(CCCCCC)c1ccc(/C=C(\C#N)C(=O)OCCCCCNC(=O)c2cc3ccc(OC)cc3oc2=O)s1
–	Active	COc1ccc2cc(C(=O)NCCOCCOCCOC(=O)/C(C#N)=C/c3ccc(N4CCCCC4)s3)c(=O)oc2c1
